Square brackets hold non-standard residues; d marks the D form. Ends that are not written are not given here. Peptide text beside a SMILES is read from it.

One assay concerns the target galanin receptor. The experiment in a line: Displacement of 125I-galanin, membranes from rat hypothalamus. It is filed as binding. The following applies: displacement experiments in rat hypothalamus, 125I-galanin. The method, then: Adult male rats (Sprague-Dawley, 180-200 g) were decapitated, the hypothalami quickly dissected and homogenized (10% mass/vol.) in 0.05M TRIS-Cl buffer, pH 7.4. The homogenate was diluted tenfold and centrifuged at 1000 × g for 10 min. The supernatant was centrifuged at 10,000 × g for 45 min and the pellet resuspended in 5 mM Hepes buffered Krebs-Ringer solution (137 mM NaCl, 2.68 mM KCl, 1.8 mM CaCl2 1 g/1 glucose), pH 7.4 to yield a final protein concentration of 1.0-1.5 mg/ml.
Displacement experiments were carried out in a final volume of 400 μl of Hepes-buffered (5 mM) Krebs-Ringer solution, 0.05% (w/v) of BSA (pH 7.4 ) supplemented with bacitracin (1 mg/ml ) in the presence of 0.1-0.2 nM 1251-galanin, the membrane preparation from rat hypothalami and increasing concentrations (10-12, 10^-6M) of unlabeled galanin or of other galanin recepto-ligands. Samples were incubated for 30 min at 37° C. Incubation was terminated by the addition of 10 ml of ice-cold Hepes-buffered Krebs-Ringer solution, followed by rapid filtration over Whatman GF/C filters, precoated for 5-6 hours in 0.3% (v/v) of polyethylencimine solution. The filters were washed with 10 ml of assay solution. Radioactivity retained on the filters was determined in a Packard gamma counter. Specific binding was defined as that displaceable by 1 μM galanin.
The 1C50 values of the displacing ligands were calculated by fitting of the experimental data on a Macintosh SE by means of a nonlincar least squares method using the program "KaleidaGraph".
As usually defined, the IC50 is the point on the concentration scale where inhibition reaches its midpoint. Take `CC(C)C[C@H](NC(=O)[C@H](CC(C)C)NC(=O)[C@@H](Cc1c[nH]c2ccccc12)NC(=O)[C@H](Cc1ccccc1)NC(=O)[C@@H](Cc1c[nH]c2ccccc12)NC(=O)[C@H](CCC(N)=O)NC(=O)[C@H](CCC(N)=O)NC(=O)[C@@H]1CCCN1C(=O)[C@H](CCCCN)NC(=O)[C@@H]1CCCN1C(=O)[C@@H](CCCNC(=N)N)NC(=O)[C@@H]1CCCN1C(=O)CNC(=O)[C@H](CC(C)C)NC(=O)[C@H](CC(C)C)NC(=O)[C@H](Cc1ccc(O)cc1)NC(=O)CNC(=O)[C@H](C)NC(=O)[C@H](CO)NC(=O)[C@H](CC(N)=O)NC(=O)[C@H](CC(C)C)NC(=O)[C@@H](NC(=O)[C@H](Cc1c[nH]c2ccccc12)NC(=O)CN)[C@@H](C)O)C(N)=O` [C 7, Galanin(1-12)-Pro-Spantide amide] (H-GWTLNSAGYLLGP[dR]PKPQQ[dW]F[dW]LL-NH2; N-terminus assumed): the half-inhibitory concentration (IC50) came to 0.2 nM.
Same read-out and setting: in the case of “GWTLNSAGYLLGPPPYGGFL-NH2 [M 36, Galanin(1-12)-ProProPro-Leuenkephalin(1-5) amide]” it was 40 nM; in that of `CC(C)C[C@H](NC(=O)[C@H](CC(C)C)NC(=O)[C@H](Cc1ccc(O)cc1)NC(=O)CNC(=O)[C@H](C)NC(=O)[C@H](CO)NC(=O)[C@H](CC(N)=O)NC(=O)[C@H](CC(C)C)NC(=O)[C@@H](NC(=O)[C@H](Cc1c[nH]c2ccccc12)NC(=O)CN)[C@@H](C)O)C(=O)NCC(=O)N1CCC[C@H]1C(=O)N1CCC[C@H]1C(=O)N1CCC[C@H]1C(=O)NCC(=O)N[C@@H](Cc1ccccc1)C(=O)N[C@@H](CO)C(=O)N1CCC[C@H]1C(=O)N[C@@H](Cc1ccccc1)C(=O)N[C@@H](CCCNC(=N)N)C(N)=O` [M 35, Galanin(1-13)-Bradykinin(2-9) amide], 0.2 nM.
Regarding “GWTLNSAGYLLGARHYINLITRQRY-NH2 [M 88, Galanin(1-12)-Ala-NPY(25-36) amide]”, the IC50 was 1 nM.
Still for that read-out and setting: the same measure for “GWTLNSAGYLLGPALALALA-NH2 [M 38, Galanin(1-13)-AlaLeuAlaLeuAlaLeuAla amide]”: 0.2 nM; for “GWTLNSAGYLLGPPPALALA-NH2 [M 40, Galanin(1-12)- -ProProProAlaLeuAlaLeuAla amide]”: 13 nM; for `CC(C)C[C@H](NC(=O)[C@H](CC(C)C)NC(=O)[C@H](Cc1ccc(O)cc1)NC(=O)CNC(=O)[C@H](C)NC(=O)[C@H](CO)NC(=O)[C@H](CC(N)=O)NC(=O)[C@H](CC(C)C)NC(=O)[C@@H](NC(=O)[C@H](Cc1c[nH]c2ccccc12)NC(=O)CN)[C@@H](C)O)C(=O)NCC(=O)N1CCC[C@H]1C(=O)N[C@@H](CCCCNC(=O)[C@@H]1CCCN1C(=O)[C@H](CC(C)C)NC(=O)[C@H](Cc1ccccc1)NC(=O)CNC(=O)CNC(=O)[C@@H](N)Cc1ccc(O)cc1)C(N)=O` [M34,A, Galanin(1-13)-Lys amide (Pro-Leuenkephalin(5-1))]: 10 nM.
Still for that read-out and setting: in the case of “GWTLNSAGYLLGPPGFSPFR-NH2 [M20, Galanin(1-13)-Bradykinin(3-9) amide]” it was 1 nM; in that of `CC[C@H](C)[C@H](NC(=O)[C@H](Cc1ccc(O)cc1)NC(=O)[C@H](Cc1c[nH]cn1)NC(=O)[C@H](CCCNC(=N)N)NC(=O)[C@@H]1CCCN1C(=O)CNC(=O)[C@H](CC(C)C)NC(=O)[C@H](CC(C)C)NC(=O)[C@H](Cc1ccc(O)cc1)NC(=O)CNC(=O)[C@H](C)NC(=O)[C@H](CO)NC(=O)[C@H](CC(N)=O)NC(=O)[C@H](CC(C)C)NC(=O)[C@@H](NC(=O)[C@H](Cc1c[nH]c2ccccc12)NC(=O)CN)[C@@H](C)O)C(=O)N[C@@H](CC(N)=O)C(=O)N[C@@H](CC(C)C)C(=O)N[C@H](C(=O)N[C@H](C(=O)N[C@@H](CCCNC(=N)N)C(=O)N[C@@H](CCC(N)=O)C(=O)N[C@@H](CCCNC(=N)N)C(=O)N[C@@H](Cc1ccc(O)cc1)C(N)=O)[C@@H](C)O)[C@@H](C)CC` [M 32, Galanin(1-13)-NPY(25-36) amide], 0.05 nM; in that of “GWTLNSAGYLLGPPPQQFFGLM-NH2 [M37, Galanin(1-12)-ProProPro-SP(5-11) amide]”, 40 nM.
“GWTLNSAGYLLGPPPLFGGY-NH2 [M36,A, Galanin(1-12)-ProProPro-Leuenkephalin(5-1) amide]” showed an IC50 of 20 nM.

Staying with this assay, now noted: membranes from rat hypothalami.
As to “Rat galanin: galanin of rat sequence, unlabeled displacer [reference compound]”, the “Displacement curves, rat versus porcine galanin” value was “indistriguishable displacement curves”.

In a further assay the test system is galanin receptor. The experiment in a line: Displacement of 125I-galanin from membranes of Rin m 5F cells. The following applies: Rin m 5F membranes, read-out: IC50. In kind it is binding, rat. The method, then: 4) Ligand binding studies were conducted. Displacement of ^125 I-galanin by galanin, galanin fragment (1-13), Substance P fragment (4-11), galanin fragment (1-13) + Substance P fragment (4-11) in equimolar concentrations and the peptides of the invention M15, M35 and M34, A was studied.
Synthetic porcine galanin(1-29) was iodinated by chloramine-T-method to yield ^125 I-monoiodo-Tyr^26 -porcine galanin (specific activity 1800-2000 Ci/mmol), (as described by Land T., et al in: Methods in Neurosciences, Ed. M. Conn, 5, 1991, 225-234), and employed in ligand binding studies carried out at equilibrium.
The establishment and cell culture of Rin m 5F (a rat pancreatic β-tumor cell-line) cells have been described earlier (Gazdav A. F., et. al. Proc. Natl. Acad. Sci. USA, 77 (1980) 3519-3523). Briefly, the cells were grown in RPMI-1640 (Gibco) medium containing 10% (v/v) fetal calf serum, 2.06 mM L-gluthamine, 100 IU/ml penicillin and 100 μg/ml streptomycin in 10% CO2 -90% air 37° C. They were passaged every 5 days. The cells were detached from the surface of the bottles using 0.25% trypsin containing 1 mM EDTA and centrifuged at 2000 × g for 5 min at 4° C. The pellet was exposed for 15 min to hypoosmotic 5 mM HEPES buffer (pH 7.4). The suspension was centrifuged at 20000 × g for 15 min, the resulting pellet was resuspended in bacitracin-containing ([…]) 5 mM HEPES-buffered Krebs-Ringer solution (137 mM NaCl, […], 1.8 mM CaCl2, 1 g/1 glucose), pH 7.4, and used immediately in equilibrium binding experiments.
Displacement experiments were carried out in a final volume of 400 μl of bacitracin-containing (1 mg/ml) HEPES-buffered (5 mM) Krebs-Ringer solution, 0.05% (w/v) of BSA (pH 7.4) in the presence of 0.1-0.2 nM ^125 I-galanin, the membrane preparation and the increasing concentrations (10^-12 -10^-6 M) of unlabeled porcine galanin or of other galanin receptor ligands. Samples were incubated for 30 min at 37° C. Incubation was terminated by the addition of 10 ml of ice-cold HEPES-buffered Krebs-Ringer solution, followed by rapid filtration over Whatman GF/C filters, precoated for 5-6 hours in 0.3% (v/v) of polyethyleneimine solution. Filters were washed with 10 ml of assay solution. Radioactivity retained on the filters was determined in a Packard gamma counter. Specific binding was defined as that displaceable by 1 μM galanin (or appropriate concentration of a displacer).
The IC50 values of the displacing ligands were calculated from the computer-generated IC50 values as described by Land, T., et. al. (ibid).
Fitting of the experimental data was carried out on a Macintosh SE by means of a nonlinear least squares method using the Macintosh program "KaleidGraph".
Turning to `CC(C)C[C@H](NC(=O)[C@H](CC(C)C)NC(=O)[C@H](Cc1ccc(O)cc1)NC(=O)CNC(=O)[C@H](C)NC(=O)[C@H](CO)NC(=O)[C@H](CC(N)=O)NC(=O)[C@H](CC(C)C)NC(=O)[C@@H](NC(=O)[C@H](Cc1c[nH]c2ccccc12)NC(=O)CN)[C@@H](C)O)C(=O)NCC(=O)N1CCC[C@H]1C(=O)N1CCC[C@H]1C(=O)N1CCC[C@H]1C(=O)NCC(=O)N[C@@H](Cc1ccccc1)C(=O)N[C@@H](CO)C(=O)N1CCC[C@H]1C(=O)N[C@@H](Cc1ccccc1)C(=O)N[C@@H](CCCNC(=N)N)C(N)=O` [M 35, Galanin(1-13)-Bradykinin(2-9) amide], the IC50 worked out at 0.1 nM.
Consider `CC(C)C[C@H](NC(=O)[C@H](CC(C)C)NC(=O)[C@H](Cc1ccc(O)cc1)NC(=O)CNC(=O)[C@H](C)NC(=O)[C@H](CO)NC(=O)[C@H](CC(N)=O)NC(=O)[C@H](CC(C)C)NC(=O)[C@@H](NC(=O)[C@H](Cc1c[nH]c2ccccc12)NC(=O)CN)[C@@H](C)O)C(=O)NCC(=O)N1CCC[C@H]1C(=O)O` [Galanin fragment (1-13), reference compound], for which the 50% inhibitory concentration (IC50) turned out to be 100 nM.
On the same count and under the same terms, in the case of `CC(C)C[C@H](NC(=O)[C@H](CC(C)C)NC(=O)[C@H](Cc1ccc(O)cc1)NC(=O)CNC(=O)[C@H](C)NC(=O)[C@H](CO)NC(=O)[C@H](CC(N)=O)NC(=O)[C@H](CC(C)C)NC(=O)[C@@H](NC(=O)[C@H](Cc1c[nH]c2ccccc12)NC(=O)CN)[C@@H](C)O)C(=O)NCC(=O)N1CCC[C@H]1C(=O)N[C@@H](CCCCNC(=O)[C@@H]1CCCN1C(=O)[C@H](CC(C)C)NC(=O)[C@H](Cc1ccccc1)NC(=O)CNC(=O)CNC(=O)[C@@H](N)Cc1ccc(O)cc1)C(N)=O` [M34,A, Galanin(1-13)-Lys amide (Pro-Leuenkephalin(5-1))] it was 10 nM.

The assay is the same for the next values; noted with them: Rin m 5F membranes, read-out: IC50 (no displacement).
As to “Substance P fragment (4-11): fragment 4-11 of Substance P (PQQFFGLM; ends and bridges not checked; UniProt P20366 61-68, looked up, fragment) [reference compound]”, the half-maximal inhibitory concentration (IC50) is more than 10000 nM.

For the origin of these results see patent US5576296A, “Galanin antagonist” (priority 1991, dated 1996).
